Results taken from paper PMC7490411 (Signal Transduction and Targeted Therapy, 2020).

Columns and labels:
[1] = rat 14-day dose escalation subacute toxicity study; assay type: in vivo; details: rats, up to 800 mg/kg/day, continuous 14 days
Protocol: The subacute toxicity study of CHMFL-BTK-85 was conducted on SD rats, 200g in weight and five weeks in age. All mice were purchased from Gempharmatech Co., Ltd (Nanjing, China). All animals were housed in a specific pathogen-free facility and used according to the animal care regulations of Hefei Institutes of Physical Science Chinese Academy of Sciences. CHMFL-BTK-85 was delivered daily in a HKI solution (0.5% Methocellulose/0.4% Tween 80 in ddH2O) by orally gavage. Body weight was measured daily after CHMFL-BTK-85 treatment.

MST1R = test: KINOMEscan; assay type: binding; details: 1000 nM
ITK = molecular target: T1, ITK (Homo sapiens, UniProt Q08881); test: KINOMEscan; assay type: binding; details: 1000 nM, read-out: Percent Control
T1 construct: purchased Invitrogen (Carlsbad, CA, USA)
T1 sequence (Q08881 1-620): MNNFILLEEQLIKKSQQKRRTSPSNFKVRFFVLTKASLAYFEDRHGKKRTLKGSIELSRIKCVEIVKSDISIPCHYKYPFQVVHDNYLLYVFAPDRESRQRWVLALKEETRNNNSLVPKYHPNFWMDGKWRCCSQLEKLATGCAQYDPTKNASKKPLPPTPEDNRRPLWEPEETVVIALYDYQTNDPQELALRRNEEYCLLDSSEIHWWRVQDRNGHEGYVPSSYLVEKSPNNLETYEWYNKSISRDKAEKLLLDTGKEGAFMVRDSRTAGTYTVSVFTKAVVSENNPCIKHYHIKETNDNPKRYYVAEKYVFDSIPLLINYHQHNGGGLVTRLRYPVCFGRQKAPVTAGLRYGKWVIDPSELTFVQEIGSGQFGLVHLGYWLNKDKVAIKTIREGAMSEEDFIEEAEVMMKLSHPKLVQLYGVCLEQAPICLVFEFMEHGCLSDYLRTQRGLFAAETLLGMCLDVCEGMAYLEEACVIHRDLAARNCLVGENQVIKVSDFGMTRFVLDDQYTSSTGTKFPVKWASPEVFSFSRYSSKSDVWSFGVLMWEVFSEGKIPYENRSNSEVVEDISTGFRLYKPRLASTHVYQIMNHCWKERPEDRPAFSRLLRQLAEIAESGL

PDGFRB = test: KINOMEscan; assay type: binding; details: 1000 nM
BTK = molecular target: T2, BTK (Homo sapiens, UniProt Q06187); test: ADP-Glo biochemical kinase assay; details: purified BTK protein, read-out: IC50 against BTK
T2 construct: purchased Invitrogen (Carlsbad, CA, USA)
T2 sequence (Q06187 whole entry): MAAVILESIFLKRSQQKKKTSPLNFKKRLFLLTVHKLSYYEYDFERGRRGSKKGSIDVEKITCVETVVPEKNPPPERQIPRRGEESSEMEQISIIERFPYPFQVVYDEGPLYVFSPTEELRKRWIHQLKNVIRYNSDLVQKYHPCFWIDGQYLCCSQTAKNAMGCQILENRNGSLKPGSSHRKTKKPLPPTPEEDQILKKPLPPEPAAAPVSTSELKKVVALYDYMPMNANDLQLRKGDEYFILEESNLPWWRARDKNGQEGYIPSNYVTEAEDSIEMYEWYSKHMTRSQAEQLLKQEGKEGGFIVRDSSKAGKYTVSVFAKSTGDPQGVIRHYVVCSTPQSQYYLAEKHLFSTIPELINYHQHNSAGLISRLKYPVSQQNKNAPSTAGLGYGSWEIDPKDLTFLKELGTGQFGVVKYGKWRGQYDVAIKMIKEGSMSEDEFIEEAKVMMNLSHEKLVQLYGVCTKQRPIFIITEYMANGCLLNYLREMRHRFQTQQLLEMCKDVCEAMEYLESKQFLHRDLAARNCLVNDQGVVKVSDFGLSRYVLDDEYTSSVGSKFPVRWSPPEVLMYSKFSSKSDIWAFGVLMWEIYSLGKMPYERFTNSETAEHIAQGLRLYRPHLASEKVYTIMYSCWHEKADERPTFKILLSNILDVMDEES
Protocol: ADP-Glo^TM assay kits from Promega Corporation were used according to instructions. CHMFL-BTK-85 was generally prepared with 1:3 serial dilutions for 4 concentrations (300 nM, 100 nM, 30 nM, and 10 nM). 8 concentrations were used (1 μM to 1 nM) for ATP competition experiments. 2.5 µL BTK (10 ng/µL) was incubated with CHMFL-BTK-85 and CHMFL-BTK-85R for 60 min at room temperature in reaction buffer followed by addition of 2.5 µL ATP/substrate mixture. The assay was conducted for 1 h at 37 °C. After the plate cooled for 5 min at room temperature, 5 μL of ADP-Glo reagent was added into each well to stop the reaction and consume the remaining […] within 40 min. At the end, 10 µL kinase detection reagent was added and incubated for 30 min at room temperature. The luminescence signal was read with an envision Perkin Elmer plate reader (Envision, PE, USA).
The biochemical tests of BMX, BLK, JAK3, TXK, HER2, HER4, ITK, EGFR, and BTK were provided by Invitrogen (Carlsbad, CA, USA).

[2] = test system: RPS6KA4(Kin.Dom.1-N-terminal); test: KINOMEscan; assay type: binding; details: 1000 nM
[3] = test system: ABL1(M351T)-phosphorylated; test: KINOMEscan; assay type: binding; details: 1000 nM
RIPK4 = test: KINOMEscan; assay type: binding; details: 1000 nM
CDC2L1 = test: KINOMEscan; assay type: binding; details: 1000 nM
WNK2 = test: KINOMEscan; assay type: binding; details: 1000 nM
EPHA5 = test: KINOMEscan; assay type: binding; details: 1000 nM
[4] = test system: TYK2(JH2domain-pseudokinase); test: KINOMEscan; assay type: binding; details: 1000 nM
PFTK1 = test: KINOMEscan; assay type: binding; details: 1000 nM
ERK5 = test: KINOMEscan; assay type: binding; details: 1000 nM
ACVR1B = test: KINOMEscan; assay type: binding; details: 1000 nM
[5] = test system: ABL1(F317I)-nonphosphorylated; test: KINOMEscan; assay type: binding; details: 1000 nM
JNK1 = test: KINOMEscan; assay type: binding; details: 1000 nM
TLK1 = test: KINOMEscan; assay type: binding; details: 1000 nM
[6] = test system: ABL1(F317L)-phosphorylated; test: KINOMEscan; assay type: binding; details: 1000 nM
ERBB4 = test: KINOMEscan; assay type: binding; details: 1000 nM
CDC2L2 = test: KINOMEscan; assay type: binding; details: 1000 nM
CSNK1A1L = test: KINOMEscan; assay type: binding; details: 1000 nM
PIK3CA(Q546K) = test: KINOMEscan; assay type: binding; details: 1000 nM
EGFR(T790M) = test: KINOMEscan; assay type: binding; details: 1000 nM
SgK110 = test: KINOMEscan; assay type: binding; details: 1000 nM
SIK2 = test: KINOMEscan; assay type: binding; details: 1000 nM
PIK3CA(I800L) = test: KINOMEscan; assay type: binding; details: 1000 nM
HCK = test: KINOMEscan; assay type: binding; details: 1000 nM
WNK1 = test: KINOMEscan; assay type: binding; details: 1000 nM
EPHB1 = test: KINOMEscan; assay type: binding; details: 1000 nM
TRPM6 = test: KINOMEscan; assay type: binding; details: 1000 nM
MLK2 = test: KINOMEscan; assay type: binding; details: 1000 nM
VEGFR2 = test: KINOMEscan; assay type: binding; details: 1000 nM

SMILES: C=CC(=O)Nc1cc(Nc2cc(-c3cccc(NC(=O)c4cc5c(s4)CCCC5)c3C)cn(C)c2=O)ccc1N1CCN(CC)CC1 [CHMFL-BTK-85]
- tolerability in dose escalation study [1]: well tolerated
- Percent Control (MST1R): 98%
- remaining binding at 1 µM (ITK): 77%
- Percent Control (PDGFRB): 68%
- IC50 (BTK): 11.5 nM
- Percent Control [2]: 87%
- Percent Control [3]: 100%
- Percent Control (RIPK4): 100%
- Percent Control (CDC2L1): 100%
- Percent Control (WNK2): 87%
- Percent Control (EPHA5): 100%
- Percent Control [4]: 100%
- Percent Control (PFTK1): 80%
- Percent Control (ERK5): 100%
- Percent Control (ACVR1B): 95%
- Percent Control [5]: 99%
- Percent Control (JNK1): 100%
- Percent Control (TLK1): 99%
- Percent Control [6]: 100%
- Percent Control (ERBB4): 91%
- Percent Control (CDC2L2): 89%
- Percent Control (CSNK1A1L): 100%
- Percent Control (PIK3CA(Q546K)): 100%
- Percent Control (EGFR(T790M)): 98%
- Percent Control (SgK110): 92%
- Percent Control (SIK2): 83%
- Percent Control (PIK3CA(I800L)): 100%
- Percent Control (HCK): 100%
- Percent Control (WNK1): 100%
- Percent Control (EPHB1): 100%
- Percent Control (TRPM6): 100%
- Percent Control (MLK2): 90%
- Percent Control (VEGFR2): 99%
